Test results: ChEMBL document CHEMBL3044652, “Synthesis of novel 2-alkyl-4-substituted-amino-pyrazolo[3,4-d]pyrimidines as new leads for anti-bacterial and anti-cancer activity” (2013)

Assays:
Assay type in all cases: functional
G-361 [1] = assay: Cytotoxicity against Homo sapiens (human) G361 cells assessed as cell growth at 10^-5 M by SRB assay relative to control; conditions: read-out: Activity
G-361 [2] = assay: Cytotoxicity against Homo sapiens (human) G361 cells assessed as cell growth at 10^-4 M by SRB assay relative to control; conditions: read-out: Activity
G-361 [3] = assay: Cytotoxicity against Homo sapiens (human) G361 cells assessed as cell growth at 10^-6 M by SRB assay relative to control; conditions: read-out: Activity
G-361 [4] = assay: Cytotoxicity against Homo sapiens (human) G361 cells assessed as cell growth at 10^-7 M by SRB assay relative to control; conditions: read-out: Activity
Escherichia coli [5] = assay: Antibacterial activity against Escherichia coli NCIM 2803 at 20 ug/ml after 24 hr by agar diffusion method; conditions: NCIM 2803, 24 h, read-out: IZ
Staphylococcus aureus [6] = assay: Antibacterial activity against Staphylococcus aureus NCIM 5021 at 20 ug/ml after 24 hr by agar diffusion method; conditions: NCIM 5021, 24 h, read-out: IZ
Bacillus subtilis [7] = assay: Antibacterial activity against Bacillus subtilis NCIM 2545 at 20 ug/ml after 24 hr by agar diffusion method; conditions: NCIM 2545, 24 h, read-out: IZ
G-361 [8] = assay: Cytotoxicity against Homo sapiens (human) G361 cells by SRB assay
[9] = test system: Staphylococcus epidermidis; assay: Antibacterial activity against Staphylococcus epidermidis NCIM 2493 at 20 ug/ml after 24 hr by agar diffusion method; conditions: NCIM 2493, 24 h, read-out: IZ
Bacillus subtilis [10] = assay: Antibacterial activity against Bacillus subtilis NCIM 2545 at 10 ug/ml after 24 hr by agar diffusion method; conditions: NCIM 2545, 24 h, read-out: IZ
Escherichia coli [11] = assay: Antibacterial activity against Escherichia coli NCIM 2803 at 10 ug/ml after 24 hr by agar diffusion method; conditions: NCIM 2803, 24 h, read-out: IZ
Staphylococcus aureus [12] = assay: Antibacterial activity against Staphylococcus aureus NCIM 5021 at 10 ug/ml after 24 hr by agar diffusion method; conditions: NCIM 5021, 24 h, read-out: IZ
[13] = test system: Staphylococcus epidermidis; assay: Antibacterial activity against Staphylococcus epidermidis NCIM 2493 at 10 ug/ml after 24 hr by agar diffusion method; conditions: NCIM 2493, 24 h, read-out: IZ

| SMILES | growth at 10 µM (G-361 [1]) | growth at 100 µM (G-361 [2]) | growth at 1 µM (G-361 [3]) | growth at 0.1 µM (G-361 [4]) | zone of inhibition at 20 µg/mL (Escherichia coli [5]) | zone of inhibition at 20 µg/mL (Staphylococcus aureus [6]) | zone of inhibition at 20 µg/mL (Bacillus subtilis [7]) | GI50 (G-361 [8]) | TGI (G-361 [8]) | zone of inhibition at 20 µg/mL [9] | LC50 (G-361 [8]) | zone of inhibition at 10 µg/mL (Bacillus subtilis [10]) | zone of inhibition at 10 µg/mL (Escherichia coli [11]) | zone of inhibition at 10 µg/mL (Staphylococcus aureus [12]) | zone of inhibition at 10 µg/mL [13] |
| --- | --- | --- | --- | --- | --- | --- | --- | --- | --- | --- | --- | --- | --- | --- | --- |
| c1ccc(-n2ncc3c(NCc4ccco4)ncnc32)cc1 | 92.3% | 51.7% | 97.5% | 100% | 12.8 mm | 13 mm | 13.6 mm | > 100 µM | > 100 µM | 13.6 mm |  |  |  |  |  |
| CCCCNc1ncnc2c1cnn2-c1ccccc1 | 43.4% | -4.5% | 90.8% | 100% | 13.6 mm | 13.3 mm | 13 mm | 2.1 µM | 37 µM | 13.3 mm | > 100 µM |  |  |  |  |
| CCc1nc(NC(C)C)c2cnn(-c3ccccc3)c2n1 | 83.3% | 40% | 96.4% | 100% | 13.3 mm | 13.6 mm | 13.3 mm | 38 µM | > 100 µM | 13.6 mm | > 100 µM |  |  |  |  |
| CCCCNc1nc(CC)nc2c1cnn2-c1ccccc1 | 84.8% | -62.5% | 96.5% | 100% | 12.7 mm | 13.3 mm | 12.8 mm | 2.02 µM | 32 µM | 13 mm | > 100 µM |  |  |  |  |
| CCc1nc(NCc2ccco2)c2cnn(-c3ccccc3)c2n1 | 86.3% | -61% | 96.5% | 100% | 12.7 mm | 13.3 mm | 13.6 mm | 2.04 µM | 32 µM | 13.6 mm | > 100 µM |  |  |  |  |
| CCCCNc1nc(C(C)C)nc2c1cnn2-c1ccccc1 | 100% | 45.4% | 100% | 100% | 13.3 mm | 14.4 mm | 12.8 mm | > 100 µM | > 100 µM | 14.1 mm | > 100 µM | 0 mm | 0 mm | 11 mm | 11 mm |
| CC(C)c1nc(N2CCOCC2)c2cnn(-c3ccccc3)c2n1 | 77.6% | 6.9% | 92.5% | 100% | 14.6 mm | 14.2 mm | 14.4 mm | 2.6 µM | > 100 µM | 14.3 mm | > 100 µM | 11.3 mm | 10.6 mm | 10.3 mm | 11 mm |
| c1ccc(-n2ncc3c(N4CCOCC4)ncnc32)cc1 | 100% | 61.5% | 100% | 100% | 13.3 mm | 13.6 mm | 12.8 mm | > 100 µM | > 100 µM | 12.7 mm | > 100 µM |  |  |  |  |
| CCCNc1nc(C)nc2c1cnn2-c1ccccc1 | 100% | 25.3% | 100% | 100% | 12.7 mm | 13.6 mm | 13 mm | 36 µM | > 100 µM | 13.6 mm | > 100 µM |  |  |  |  |
| Cc1nc(NC(C)C)c2cnn(-c3ccccc3)c2n1 | 100% | 13.5% | 100% | 100% | 13 mm | 13.3 mm | 13.6 mm | 32 µM | > 100 µM | 13.7 mm | > 100 µM |  |  |  |  |
| CCCCNc1nc(C)nc2c1cnn2-c1ccccc1 | 100% | -30% | 100% | 100% | 14.4 mm | 14.6 mm | 13.8 mm | 2.4 µM | > 100 µM | 14.5 mm | > 100 µM | 0 mm | 11 mm | 11.3 mm | 11.1 mm |
| Cc1nc(NCc2ccco2)c2cnn(-c3ccccc3)c2n1 | 100% | 30.1% | 100% | 100% | 13.6 mm | 12.7 mm | 12.5 mm | 39 µM | > 100 µM | 13.3 mm | > 100 µM |  |  |  |  |
| Cc1nc(N2CCOCC2)c2cnn(-c3ccccc3)c2n1 | 99.8% | 43.9% | 100% | 100% | 12.7 mm | 13.3 mm | 13.6 mm | > 100 µM | > 100 µM | 13.6 mm | > 100 µM |  |  |  |  |
| Cc1nc(Nc2ccccc2)c2cnn(-c3ccccc3)c2n1 | 100% | 65.6% | 100% | 100% | 13.3 mm | 13.4 mm | 13.6 mm | > 100 µM | > 100 µM | 13.6 mm | > 100 µM |  |  |  |  |
| CCN(CC)c1nc(C)nc2c1cnn2-c1ccccc1 | 100% | 61.8% | 100% | 100% | 13.6 mm | 13.7 mm | 13.1 mm | > 100 µM | > 100 µM | 13.3 mm | > 100 µM |  |  |  |  |
| Cc1nc(NCc2ccccc2)c2cnn(-c3ccccc3)c2n1 | 100% | 45.5% | 100% | 100% | 12.6 mm | 13.1 mm | 13.3 mm | > 100 µM | > 100 µM | 12.7 mm | > 100 µM |  |  |  |  |
| CCNc1nc(C)nc2c1cnn2-c1ccccc1 | 99.6% | 29.2% | 100% | 100% | 13.4 mm | 13.3 mm | 13.3 mm | 38.7 µM | > 100 µM | 13.3 mm | > 100 µM |  |  |  |  |
| CCCNc1nc(CC)nc2c1cnn2-c1ccccc1 | 84.7% | -34.7% | 94.7% | 100% | 13.6 mm | 13.3 mm | 13 mm | 2.2 µM | 37 µM | 13.3 mm | > 100 µM |  |  |  |  |
| CCCNc1ncnc2c1cnn2-c1ccccc1 | 99.7% | 64.8% | 100% | 100% | 13.2 mm | 12.7 mm | 13.2 mm | > 100 µM | > 100 µM | 13.3 mm | > 100 µM |  |  |  |  |
| CC1(C)S[C@@H]2[C@H](NC(=O)[C@H](N)c3ccc(O)cc3)C(=O)N2[C@H]1C(=O)O [AMOXICILLIN] |  |  |  |  | 18.7 mm | 17.3 mm | 19 mm |  |  | 16.6 mm |  | 16.3 mm | 15.5 mm | 16.6 mm | 13 mm |
